Results reported in paper PMC9097471, “Development of Selective Phosphatidylinositol 5-Phosphate 4-Kinase γ Inhibitors with a Non-ATP-competitive, Allosteric Binding Mode” (Journal of Medicinal Chemistry, 2022).
In brackets after ≈: the same amount, converted by molar mass.

Assays:
[1] = Plasma protein binding; format: in vitro ADME; details: Mouse plasma protein binding; read-out: mPPB (converted)
Procedure: Plasma protein binding analysis was performed by Charles River Laboratories Inc. (ADME-SOP-90). Briefly, compounds in DMSO (10 µM, 0.5% DMSO final) were added to mouse plasma and dialysed against buffer for 4 hours at 37 °C. The compound concentration in each of the plasma and buffer compartments was determined by mass spectrometry and used to calculate the percentage compound bound. […]

[2] = target: T1, PI5P4Kα (Homo sapiens, UniProt P48426); assay: Adapta TR-FRET assay (Thermo Fisher); format: biochemical; parameters: purchased Thermo Fisher
T1 sequence (P48426 1-406): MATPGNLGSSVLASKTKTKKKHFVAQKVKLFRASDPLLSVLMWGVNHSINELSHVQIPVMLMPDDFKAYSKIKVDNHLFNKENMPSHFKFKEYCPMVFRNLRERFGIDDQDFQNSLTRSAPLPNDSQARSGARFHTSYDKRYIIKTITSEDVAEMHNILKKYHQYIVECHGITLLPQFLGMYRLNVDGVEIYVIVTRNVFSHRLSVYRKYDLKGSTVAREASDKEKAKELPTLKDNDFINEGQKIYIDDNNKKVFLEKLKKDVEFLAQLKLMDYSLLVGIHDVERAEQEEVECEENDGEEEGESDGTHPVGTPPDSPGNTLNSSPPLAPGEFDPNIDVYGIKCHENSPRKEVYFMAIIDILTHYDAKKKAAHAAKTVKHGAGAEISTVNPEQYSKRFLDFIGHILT
Procedure: Table S7. PI5P4Kα adapta assay results for compounds 1 and 40.a
Compound PI5P4Kα adapta IC50 (nM) […]
a The experiments were run by Thermo Fisher. This assay is a TR-FRET based assay using an Eu-anti-ADP antibody, the conditions are: the 2X PIP4Kα/PI(5)P mixture is prepared in 50 mM HEPES pH 7.5, 0.1% CHAPS, 1 mM EGTA, 4 mM MgCl2. The final 10 μL Kinase Reaction consists of 1.5 - 6 ng PIP4Kα and 50 μM PI(5)P in 32.5 mM HEPES pH 7.5, 0.05% CHAPS, 0.5 mM EGTA, 2 mM MgCl2. After the 1 hour Kinase Reaction incubation, 5 μL of Detection Mix is added. The Detection mix consists of EDTA (30mM), Eu-anti-ADP antibody (6 nM) and ADP tracer in TR-FRET buffer. The detection mix contains the EC60 concentration of tracer for 5-

[3] = target: T2, PI5P4Kβ-WT (Homo sapiens, UniProt P78356); assay: ADP-Glo inhibition assay; details: ADP-Glo
T2 sequence (P78356 1-416): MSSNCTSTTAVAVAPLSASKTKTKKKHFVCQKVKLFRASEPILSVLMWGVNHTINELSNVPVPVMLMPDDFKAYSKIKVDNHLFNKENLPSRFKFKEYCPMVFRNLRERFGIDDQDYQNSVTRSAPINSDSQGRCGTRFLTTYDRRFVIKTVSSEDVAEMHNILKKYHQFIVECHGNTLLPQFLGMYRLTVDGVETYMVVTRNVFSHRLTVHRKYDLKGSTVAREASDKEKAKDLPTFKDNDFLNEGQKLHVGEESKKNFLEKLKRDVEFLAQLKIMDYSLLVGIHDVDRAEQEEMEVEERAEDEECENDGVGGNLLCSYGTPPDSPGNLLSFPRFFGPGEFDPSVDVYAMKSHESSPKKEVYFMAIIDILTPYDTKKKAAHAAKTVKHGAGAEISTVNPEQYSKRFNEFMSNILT
Excerpt: To enable direct comparisons, Promega’s ADP-Glo reporter assay was developed using a mutant form of the kinase. […] To mitigate concerns about being misled by the use of the PI5P4Kγ+ construct and the possible introduction of PI5P4Kα activity into the molecules, our screening cascade included the measurement of ADP-Glo activity at PI5P4Kα-WT (and PI5P4Kβ-WT to fully understand emerging selectivity profiles).

[4] = Liver microsomal stability; format: in vitro ADME; details: liver microsomes; Human liver microsomal hepatic stability; read-out: HLM t1/2
[5] = target: T3, PI5P4Kγ-WT (Homo sapiens, UniProt Q8TBX8); assay: InCell Pulse cellular target engagement (thermal stabilisation) in HEK293 cells; format: cell-based
T3 sequence (Q8TBX8 1-421): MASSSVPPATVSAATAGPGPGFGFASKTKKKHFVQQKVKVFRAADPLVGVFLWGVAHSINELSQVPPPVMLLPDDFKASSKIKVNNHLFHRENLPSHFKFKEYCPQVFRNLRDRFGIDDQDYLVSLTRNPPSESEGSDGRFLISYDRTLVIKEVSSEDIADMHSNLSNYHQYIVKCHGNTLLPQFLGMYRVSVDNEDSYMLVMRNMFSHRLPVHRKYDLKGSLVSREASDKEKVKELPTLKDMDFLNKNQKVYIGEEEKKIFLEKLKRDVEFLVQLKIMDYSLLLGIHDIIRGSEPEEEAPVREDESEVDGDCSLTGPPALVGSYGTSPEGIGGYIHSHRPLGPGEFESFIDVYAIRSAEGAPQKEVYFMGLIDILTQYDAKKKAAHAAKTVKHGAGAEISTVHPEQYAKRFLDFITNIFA
Procedure: The binding of compounds to PI5P4Kγ in intact cells was assessed using an InCell Pulse thermal stabilisation assay (DiscoverX). […] The plate was then incubated for 60 min in the dark prior to luminescence reading using a Pherastar FSX plate reader (BMG Labtech).
Statistical analysis was performed using nonparametric testing in Prism 8 (GraphPad). Activity pIC50 values and in vivo binding pEC50 values were estimated using a 4-parameter fit (Dotmatics).

[6] = Chromatographic LogD (HPLC method); format: physicochemical; details: pH 7.4, read-out: mchrom log D7.4
Procedure: 5-100% gradient of MeCN in 50mM NH4OAc in H 2O adjusted to pH 7.4. […]

[7] = Kinetic solubility; format: physicochemical; details: PBS buffer, PBS pH 7.4
Procedure: Kinetic solubility analysis was performed by Charles River Laboratories Inc. (ADME-SOP-01). Compound in
DMSO at 10 mM was diluted to 200 µM in both DMSO and buffer (0.1 M PBS, pH 7.4, 2% DMSO final), and
an aliquot of the 200 µM DMSO solution was diluted to 10 µM, and all dilutions were equilibrated for 2 hours. […]
Compound 9 was purchased from Am binter (Amb16536894) and was determined by UPLC to have purity >95%.
All other compounds were synthesised as described below , and all tested compounds have purity >95% by UPLC

Row | IC50 ([3]; read-out: PI5P4Kβ IC50, new data) [µM] | IC50 ([5]; InCell Pulse, new data) [µM] | Compound | fraction unbound at 4 h, 10 µM [1] | IC50 [2] [µM] | PI5P4Kβ pIC50 [3] | half-life at 1 µM [4] [min] | cellular target engagement with PI5P4Kγ-WT ([5]; InCell Pulse) | Target engagement PI5P4Kγ WT pIC50 ([5]; InCell Pulse in intact cells) | chromatographic logD [6] | solubility at 2 h [7] [µM]
1 |  |  | CC(C)c1ccccc1-c1nc(NCc2ccccn2)c2c(ccn2C)n1 [Compound 40] | 0.01 | > 30 | <4.6 | 47 | submicromolar activity | 6.1 | 4.5 | 7 (≈ 2.5 µg/mL)
2 | > 25 | 2.5 | FC(F)(F)c1ccccc1-c1nc(NCc2cccs2)c2ccccc2n1 [Compound 1, NIH-12848, reference compound] | < 0.01 | > 30 | <4.6 | 21 |  |  | 6.3 | < 5
